For test [1], the target named is T1, Met (Homo sapiens, UniProt P08581).
T1 construct: purchased Life Technologies
Kind of test: LanthaScreen Eu kinase binding assay, Met. As to conditions: Tracer 236, read-out: cMet kinase binding activity (Kd). (Time-resolved FRET reads energy transfer from a long-lived donor to a nearby acceptor.)

For test [2], the target named is T2, Mer (Homo sapiens, UniProt Q12866).
T2 construct: purchased Life Technologies
T2 sequence (Q12866 21-999): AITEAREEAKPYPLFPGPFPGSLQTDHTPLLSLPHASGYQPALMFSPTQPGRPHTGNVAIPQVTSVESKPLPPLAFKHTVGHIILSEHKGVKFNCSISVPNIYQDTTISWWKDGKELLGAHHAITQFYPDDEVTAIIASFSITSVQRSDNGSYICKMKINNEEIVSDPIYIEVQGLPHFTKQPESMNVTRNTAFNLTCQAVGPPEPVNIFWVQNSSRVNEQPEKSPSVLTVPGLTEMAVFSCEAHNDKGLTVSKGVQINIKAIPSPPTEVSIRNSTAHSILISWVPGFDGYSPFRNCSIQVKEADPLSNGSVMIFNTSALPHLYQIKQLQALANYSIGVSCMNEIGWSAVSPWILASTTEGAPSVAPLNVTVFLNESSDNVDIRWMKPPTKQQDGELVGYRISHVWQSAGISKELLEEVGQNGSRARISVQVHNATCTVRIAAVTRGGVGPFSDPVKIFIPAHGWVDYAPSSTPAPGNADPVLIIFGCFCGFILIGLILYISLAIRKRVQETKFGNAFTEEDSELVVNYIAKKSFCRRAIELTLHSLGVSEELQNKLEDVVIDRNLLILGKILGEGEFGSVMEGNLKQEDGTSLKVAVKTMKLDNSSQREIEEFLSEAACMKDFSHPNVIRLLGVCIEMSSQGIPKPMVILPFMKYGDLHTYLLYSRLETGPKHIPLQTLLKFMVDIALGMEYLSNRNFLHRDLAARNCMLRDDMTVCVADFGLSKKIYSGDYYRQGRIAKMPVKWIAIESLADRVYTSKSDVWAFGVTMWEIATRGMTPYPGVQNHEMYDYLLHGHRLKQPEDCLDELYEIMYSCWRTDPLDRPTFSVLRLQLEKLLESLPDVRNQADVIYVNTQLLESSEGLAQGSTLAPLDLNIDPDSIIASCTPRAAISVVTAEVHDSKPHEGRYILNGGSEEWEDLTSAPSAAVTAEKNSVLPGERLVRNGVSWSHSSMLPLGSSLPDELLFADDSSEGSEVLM
Kind of test: LanthaScreen Eu kinase binding assay, Mer. The note with it: Tracer 236.

In test [3] the target is T3, Axl (Homo sapiens, UniProt P30530).
T3 construct: purchased Life Technologies
T3 sequence (P30530 26-894): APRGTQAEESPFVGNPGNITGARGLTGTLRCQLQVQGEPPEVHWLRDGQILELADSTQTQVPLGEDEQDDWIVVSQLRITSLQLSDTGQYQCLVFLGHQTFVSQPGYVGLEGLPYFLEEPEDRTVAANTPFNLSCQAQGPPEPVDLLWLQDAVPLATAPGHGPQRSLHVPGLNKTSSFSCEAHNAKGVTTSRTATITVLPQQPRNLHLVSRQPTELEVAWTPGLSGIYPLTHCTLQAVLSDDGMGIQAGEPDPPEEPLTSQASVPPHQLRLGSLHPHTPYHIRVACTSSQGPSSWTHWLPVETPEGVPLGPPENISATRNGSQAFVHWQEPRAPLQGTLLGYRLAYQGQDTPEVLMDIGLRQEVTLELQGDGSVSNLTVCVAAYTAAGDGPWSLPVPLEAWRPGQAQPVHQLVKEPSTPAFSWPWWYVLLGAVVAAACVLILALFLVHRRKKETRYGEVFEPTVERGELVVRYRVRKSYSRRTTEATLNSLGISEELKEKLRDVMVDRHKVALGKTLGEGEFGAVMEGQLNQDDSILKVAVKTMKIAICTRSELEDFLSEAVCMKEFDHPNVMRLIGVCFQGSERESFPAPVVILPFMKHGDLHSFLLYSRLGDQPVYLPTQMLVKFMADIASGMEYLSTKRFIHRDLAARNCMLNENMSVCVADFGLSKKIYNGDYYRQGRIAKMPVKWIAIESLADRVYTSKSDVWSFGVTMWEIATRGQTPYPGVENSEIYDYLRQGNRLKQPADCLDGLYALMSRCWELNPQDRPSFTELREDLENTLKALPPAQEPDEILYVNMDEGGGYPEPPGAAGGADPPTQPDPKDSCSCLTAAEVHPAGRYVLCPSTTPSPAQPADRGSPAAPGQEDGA
Kind of test: LanthaScreen Eu kinase binding assay, Axl. The note with it: Tracer 236.

Some results are limits rather than exact numbers.

T1 sequence (P08581 25-1390): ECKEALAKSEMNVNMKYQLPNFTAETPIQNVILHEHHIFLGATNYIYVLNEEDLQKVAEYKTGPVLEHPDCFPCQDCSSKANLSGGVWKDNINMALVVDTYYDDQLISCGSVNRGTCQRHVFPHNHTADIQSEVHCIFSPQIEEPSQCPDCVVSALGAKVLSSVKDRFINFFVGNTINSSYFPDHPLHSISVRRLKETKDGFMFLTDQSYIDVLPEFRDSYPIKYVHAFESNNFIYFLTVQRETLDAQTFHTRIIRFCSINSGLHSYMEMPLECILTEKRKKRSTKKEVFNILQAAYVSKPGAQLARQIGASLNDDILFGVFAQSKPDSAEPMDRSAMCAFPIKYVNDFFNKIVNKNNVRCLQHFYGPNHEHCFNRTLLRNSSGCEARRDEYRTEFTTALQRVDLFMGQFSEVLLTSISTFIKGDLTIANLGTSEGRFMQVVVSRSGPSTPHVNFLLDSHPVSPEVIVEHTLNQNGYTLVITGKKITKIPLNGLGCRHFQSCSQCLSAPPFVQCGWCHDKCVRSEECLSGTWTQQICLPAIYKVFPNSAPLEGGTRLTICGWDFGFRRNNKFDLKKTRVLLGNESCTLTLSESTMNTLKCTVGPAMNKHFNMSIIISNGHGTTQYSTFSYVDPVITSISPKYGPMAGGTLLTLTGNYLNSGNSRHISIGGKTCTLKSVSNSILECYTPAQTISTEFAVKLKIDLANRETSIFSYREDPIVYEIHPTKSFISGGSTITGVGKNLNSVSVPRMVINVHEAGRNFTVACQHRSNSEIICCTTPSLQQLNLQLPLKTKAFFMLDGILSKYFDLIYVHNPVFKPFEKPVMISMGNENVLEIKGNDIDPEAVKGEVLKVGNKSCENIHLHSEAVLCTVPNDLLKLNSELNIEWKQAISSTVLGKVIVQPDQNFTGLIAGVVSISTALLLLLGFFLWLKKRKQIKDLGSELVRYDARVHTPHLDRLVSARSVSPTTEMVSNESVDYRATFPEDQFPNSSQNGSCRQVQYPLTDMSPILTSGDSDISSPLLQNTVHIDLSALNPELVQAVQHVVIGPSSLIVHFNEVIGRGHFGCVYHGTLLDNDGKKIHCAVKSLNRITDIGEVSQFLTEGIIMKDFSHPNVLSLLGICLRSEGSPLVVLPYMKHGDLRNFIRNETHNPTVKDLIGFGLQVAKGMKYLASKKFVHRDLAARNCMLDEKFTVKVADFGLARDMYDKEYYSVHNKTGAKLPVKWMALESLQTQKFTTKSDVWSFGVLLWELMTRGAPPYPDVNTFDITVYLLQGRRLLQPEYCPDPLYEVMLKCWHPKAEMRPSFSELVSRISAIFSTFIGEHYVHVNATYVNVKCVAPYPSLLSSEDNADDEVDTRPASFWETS

The term Kd denotes the equilibrium constant for the complex coming apart. As for `CCOc1cn(-c2ccc(Cl)c(CN(C)C)c2)nc1C(=O)Nc1ccc(Oc2ccnc3cc(OC)c(OC)cc23)cn1` [Compound 126], the Kd in test [1], in test [2] and in test [3] was under 100 nM in each case.
Take `CCOc1cn(-c2cn[nH]c2)nc1C(=O)Nc1ccc(Oc2ccnc3cc(OC)c(OC)cc23)cn1` [Compound 8]: the Kd in test [1], in test [2] and in test [3] was under 100 nM in each case.
In the case of `CCOc1cn(-c2ccc(C(C)C)cc2)nc1C(=O)Nc1ccc(Oc2ccnc3cc(OC)c(OC)cc23)cn1` [Compound 116], the Kd in test [1] was 100 to 1000 nM; in test [2], under 100 nM; in test [3], under 100 nM.
Turning to `COc1cc2nccc(Oc3ccc(NC(=O)c4nn(-c5ccc(F)cc5C)cc4OCC(F)(F)F)nc3)c2cc1OC` [Compound 203], the Kd in test [1], in test [2] and in test [3] was under 100 nM throughout.
For `CCOc1cn(-c2cccnc2)nc1C(=O)Nc1ccc(Oc2ccnc3cc(OC(C)CC)c(OC)cc23)cn1` (stereo not drawn) [Compound 206], the Kd was at least 1000 nM in test [1], under 100 nM in test [2] and under 100 nM in test [3].
In the case of `CCOc1cn(-c2cnccc2C(C)(C)O)nc1C(=O)Nc1ccc(Oc2ccnc3cc(OC)c(OC)cc23)cn1` [Compound 184], the Kd in test [1], in test [2] and in test [3] was under 100 nM each time.
Take `CCOc1cn(-c2nccnc2Cl)nc1C(=O)Nc1ccc(Oc2ccnc3cc(OC)c(OC)cc23)cn1` [Compound 177]: the Kd in test [1], in test [2] and in test [3] was under 100 nM throughout.
As to `COc1cc2nccc(Oc3ccc(NC(=O)c4nn(-c5ccc(OC(F)(F)F)cc5Cl)cc4OCC(F)(F)F)nc3)c2cc1OC` [Compound 186], the values for the Kd in test [1], in test [2] and in test [3] were 100 to 1000 nM, under 100 nM and 100 to 1000 nM, respectively.
On to `CCOc1cn(-c2ncn(C)n2)nc1C(=O)Nc1ccc(Oc2ccnc3cc(OC)c(OC)cc23)cn1` [Compound 165], for which the Kd in test [1], in test [2] and in test [3] was under 100 nM throughout.
On to `CCOc1cn(-c2ccc(C(C)C)cc2F)nc1C(=O)Nc1ccc(Oc2ccnc3cc(OC)c(OC)cc23)cn1` [Compound 127], for which the dissociation constant (Kd) in test [1], in test [2] and in test [3] was under 100 nM each time.
Take `CCOc1cn(-c2ccc(F)cc2CC)nc1C(=O)Nc1ccc(Oc2ccnc3cc(OC)c(OC)cc23)cn1` [Compound 112]: the Kd in test [1], in test [2] and in test [3] was under 100 nM throughout.
Consider `CCOc1cn(-c2cnccc2CO)nc1C(=O)Nc1ccc(Oc2ccnc3cc(OC)c(OC)cc23)cn1` [Compound 179], for which the Kd in test [1], in test [2] and in test [3] was under 100 nM each time.
In the case of `CCOc1cn(-c2nc[nH]n2)nc1C(=O)Nc1ccc(Oc2ccnc3cc(OC)c(OC)cc23)cn1` [Compound 168], the equilibrium dissociation constant (Kd) in test [1], in test [2] and in test [3] was under 100 nM in each case.
Consider `CCOc1cn(-c2ccc(N)nc2)nc1C(=O)Nc1ccc(Oc2ccnc3cc(OC)c(OC)cc23)cn1` [Compound 6], for which the figures for the equilibrium dissociation constant (Kd) in test [1], in test [2] and in test [3] were 100 to 1000 nM, under 100 nM and under 100 nM, respectively.
With `CCOc1cn(-c2cnccc2Cl)nc1C(=O)Nc1ccc(Oc2ccnc3cc(OC)c(OC)cc23)cc1F` [Compound 194], the Kd in test [1], in test [2] and in test [3] was under 100 nM each time.
Regarding `CCOc1cn(-c2ccc(Cl)cc2Cl)nc1C(=O)Nc1ccc(Oc2ccnc3cc(OC)c(OC)cc23)cn1` [Compound 108], the dissociation constant (Kd) in test [1] was at least 1000 nM; in test [2], under 100 nM; in test [3] it was under 100 nM.
Turning to `CCOc1cn(-c2ccc(F)cc2C)nc1C(=O)Nc1ccc(Oc2ccnc3cc(OC)c(OC)cc23)nn1` [Compound 97], the equilibrium dissociation constant (Kd) is at least 1000 nM in test [1], under 100 nM in test [2] and under 100 nM in test [3].
In the case of `CCOc1cn(-c2ccc(OC(F)(F)F)cc2Cl)nc1C(=O)Nc1ccc(Oc2ccnc3cc(OC)c(OC)cc23)c(F)c1` [Compound 189], the Kd in test [1], in test [2] and in test [3] was under 100 nM each time.
Turning to `CCOc1cn(-c2cnccc2C)nc1C(=O)Nc1ccc(Oc2ccnc3cc(OC)c(OC)cc23)nn1` [Compound 210], the Kd in test [1], in test [2] and in test [3] was under 100 nM throughout.
Regarding `CCOc1cn(-c2ccc(C)cc2F)nc1C(=O)Nc1ccc(Oc2ccnc3cc(OC)c(OC)cc23)cn1` [Compound 100], the Kd is 100 to 1000 nM in test [1], under 100 nM in test [2] and under 100 nM in test [3].
For the molecule `CCOc1cn(-c2ccc(Cl)cc2C(F)(F)F)nc1C(=O)Nc1ccc(Oc2ccnc3cc(OC)c(OC)cc23)cn1` [Compound 101], the Kd in test [1], in test [2] and in test [3] was under 100 nM in each case.
For `CCOc1cn(-c2ccnc(O)c2)nc1C(=O)Nc1ccc(Oc2ccnc3cc(OC)c(OC)cc23)cn1` [Compound 7], the results for the Kd in test [1], in test [2] and in test [3] were under 100 nM, under 100 nM and at least 1000 nM, respectively.
As for `CCOc1cn(-c2ccc(F)c(CN(C)C)c2)nc1C(=O)Nc1ccc(Oc2ccnc3cc(OC)c(OC)cc23)cn1` [Compound 124], the Kd in test [1], in test [2] and in test [3] was under 100 nM each time.
Turning to `CCOc1cn(-c2cnc(CO)nc2)nc1C(=O)Nc1ccc(Oc2ccnc3cc(OC)c(OC)cc23)cn1` [Compound 96], the values for the Kd in test [1], in test [2] and in test [3] were at least 1000 nM, under 100 nM and under 100 nM, respectively.
On to `CCOc1cnn(-c2cncs2)c1C(=O)Nc1ccc(Oc2ccnc3cc(OC)c(OC)cc23)cn1` [Compound 16], for which the Kd in test [1] was 100 to 1000 nM; in test [2] it was under 100 nM; in test [3], under 100 nM.
As for `CCOc1cn(-c2c(C)ccnc2C)nc1C(=O)Nc1ccc(Oc2ccnc3cc(OC)c(OC)cc23)cn1` [Compound 132], the Kd in test [1], in test [2] and in test [3] was under 100 nM throughout.
Consider `CCOc1cn(-c2nccnc2Cl)nc1C(=O)Nc1ccc(Oc2ccnc3cc(OC)c(OC)cc23)cc1F` [Compound 190], for which the Kd in test [1], in test [2] and in test [3] was under 100 nM in each case.
As for `CCOc1cn(-c2cnccc2C(F)(F)F)nc1C(=O)Nc1ccc(Oc2ccnc3cc(OC)c(OC)cc23)c(F)c1` [Compound 198], the dissociation constant (Kd) in test [1], in test [2] and in test [3] was under 100 nM in each case.
Regarding `CCOc1cn(-c2ccc(OC(F)(F)F)cc2C)nc1C(=O)Nc1ccc(Oc2ccnc3cc(OC)c(OC)cc23)cn1` [Compound 113], the Kd in test [1] is 100 to 1000 nM; in test [2], under 100 nM; in test [3] it was under 100 nM.
As to `COc1cc2nccc(Oc3ccc(NC(=O)c4nn(-c5cccnc5)cc4OCC(F)(F)F)nc3)c2cc1OC` [Compound 185], the Kd in test [1], in test [2] and in test [3] was under 100 nM in each case.
For `CCOc1cn(-c2cnccc2C)nc1C(=O)Nc1ccc(Oc2ccnc3cc(OC)c(OC)cc23)cc1F` [Compound 151], the Kd in test [1], in test [2] and in test [3] was under 100 nM throughout.

These data come from US10934274B2, “Quinoline derivatives as TAM RTK inhibitors” (Qurient Co., Ltd., priority 2015, dated 2021).
